Laboratory results from patent publication US8523975B2, “Salts of mineral nutrients stabilized with amino acids and/or ammonium salt, products and food supplements that contain them and procedures for obtaining same” (priority 2005, dated 2013).

Columns and labels:
[1] = reference data (Merck Index XII / manufacturer Bartek Inc.); cited from earlier work
[2] = Comparative data of solubility in water; conditions: 25° C., solubility expressed as iron

| SMILES | Solubility in water at 25° C. (non-stabilized salt) [1] [grams per liter] | Fe++ (ferrous) allowed per liter of water [2] |
| --- | --- | --- |
| O.O.O.O=C([O-])/C=C/C(=O)[O-].[Ca+2] [Calcium Fumarate 3H2O] | 1.22 |  |
| O=C([O-])/C=C/C(=O)[O-].[Fe+2] [Ferrous fumarate] | 1.4 | 0.460 gr Fe++ per liter of water |
